# Measurements as given in PMC4698308, “A new amino acid substitution (Ala-205-Phe) in acetolactate synthase (ALS) confers broad spectrum resistance to ALS-inhibiting herbicides” (Planta, 2015).
# pIC50: −log10 of the molar value. Like-named read-outs stand apart in the source and are kept apart here.
# Columns and labels:
# [1] = target: T1, recombinant Arabidopsis thaliana ALS wild-type enzyme (WT—sensitive) (Arabidopsis thaliana, UniProt P17597); experiment: biochemical; details: concentration for 50 % inhibition of WT enzyme; max inhibitor concentration 1.00 × 10^−04 M; read-out: WT sensitivity [IC50]
# T1 construct: Protein constructs contained an 85 amino acid N-terminal deletion (chloroplast transit peptide); Hexa-histidine tag (N); made in house
# Summary of the method: (§1)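 His-tagged enzymes lacking the 85-residue N-terminal transit peptide, expressed and purified. Herbicides in DMSO added; reaction 60 min at 30 °C, stopped with H2SO4, acetolactate converted to acetoin at 56 °C for 15 min.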
# [2] = test system: recombinant Arabidopsis thaliana ALS variant A205F; assay type: biochemical; details: IC50 mutant divided by IC50 sensitive ALS; max inhibitor concentration 1.00 × 10^−04 M
# Summary of the method: as §1
# [3] = test system: recombinant Arabidopsis thaliana ALS variant A205V; assay type: biochemical; details: IC50 mutant divided by IC50 sensitive ALS; max inhibitor concentration 1.00 × 10^−04 M
# Summary of the method: as §1
# [4] = test system: recombinant Arabidopsis thaliana ALS variant W574L; assay type: biochemical; details: IC50 mutant divided by IC50 sensitive ALS; max inhibitor concentration 1.00 × 10^−04 M
# Summary of the method: as §1
# [5] = test system: annual bluegrass (Poa annua L.); experiment: Whole plant non-target site resistance experiment with P450 inhibitors malathion or PBO (control 21 days after treatment); assay type: in vivo; details: for Annual bluegrass control S: susceptible (S)
# Protocol: Additional experiments were conducted during March–April 2015 to determine if non-target site based mechanisms conferred resistance to ALS inhibitors in our annual bluegrass population, POAAN-R3. Plants (RP6, RP7, and S) were cultured in plastic conical containers as previously described and allowed to acclimate to the glasshouse for 18 days prior to initiating two experiments.
# In the first experiment, resistant (RP6, RP7) and susceptible (S) plants were treated with foramsulfuron at 29 g ha^−1, trifloxysulfuron (Monument. Syngenta Professional Products. Greensboro, NC, USA) at 27.8 g ha^−1, imazaquin (Image. BASF Corporation. Research Triangle Park, NC) at 27.5 g ha^−1, or bispyribac-sodium (Velocity. Valent USA Corporation. Walnut Creek, CA, USA) at 70 g ha^−1. All herbicides were applied alone or in combination with either malathion (Spectrum Group. St. Louis, MO, USA) at 1000 g ha^−1 or piperonyl butoxide (Sigma Aldrich. St. Louis, MO, USA) at 2100 g ha^−1. Malathion and piperonyl butoxide (PBO) inhibit cytochrome P450 monooxygenases involved in metabolism of ALS inhibiting herbicides and are commonly used at the application rates tested herein to evaluate non-target site based resistance mechanisms in weeds (Burnet et al. [1994]; Christopher et al. [1992]; Yu and Powles [2014b]; Rao et al. [1995]). All herbicides were mixed in water carrier and included non-ionic surfactant at 0.25 % v/v. Malathion and PBO were mixed with methanol and de-ionized water (50:50) and applied 60 min prior to herbicide application using a previously described enclosed spray chamber on 13 February 2015.
# Annual bluegrass control was visually assessed on a 0 (i.e., no control) to 100 % (i.e., complete kill) scale relative to the non-treated 21 days after treatment. After all control data had been collected, aboveground biomass was harvested from each plastic conical container at the soil line using scissors, dried at 100 °C, and weighed. Treatments were arranged as a 3 × 5 × 3 factorial with three plant selections (RP6, RP7, S), five herbicides (foramsulfuron, trifloxysulfuron, imazaquin, bispyribac-sodium, non-treated) and three P450 inhibitor treatments (malathion, PBO, non-treated) in a completely randomized design with four replications and repeated in separate glasshouses during February 2015.
# [6] = test system: annual bluegrass population POAAN-R3; parameters: method as in Brosnan et al. [2015]; details: ref Brosnan et al. [2015], cited from earlier work
# [7] = test system: annual bluegrass (Poa annua L.); experiment: Whole plant confirmation of target-site resistance (visual control and dry biomass 28 days after treatment); assay type: in vivo
# Protocol: Progeny of all POAAN-R3 plants subjected to genetic sequencing (RP1–RP8) were surface seeded into separate 10.2 × 10.2 cm greenhouse pots (Dillen Products/Myers Industries, Inc. Middlefield, OH, USA.) filled with a peat moss growing medium (ProMix BX Mycorrhizae. Premier Tech Horticulture, Quakertown, PA, USA) on 5 January 2015. The susceptible annual bluegrass population (S) included in our sequencing analysis was also seeded in the same fashion.
# After seeding, pots were placed inside a growth chamber (Conviron A1000. Controlled Environments Inc, Hendersonville, NC) configured to provide 14 h day at 19 °C and a 10 h night at 10 °C. Light intensity inside the chamber averaged 296 μmol m^−2 s^−1. Irrigation was applied to each pot daily using distilled water and a misting nozzle. Annual bluegrass emergence was first noted on 16 January 2015. Plants remained inside the growth chamber until 26 January 2015. On this date, seedlings of each plant (RP1–RP8, S) were transplanted into individual 164 cm^3 plastic conical containers (SC10 Super Cell Cone-tainer. Stuewe and Sons. Tangent, OR 97389) filled with Sequatchie silt loam (fine-loamy, siliceous, semiactive, thermic humic Hapludult) measuring 6.2 in soil pH and 2.1 % in organic matter content. Transplants were replicated such that 32 plastic conical containers were created for each annual bluegrass plant analyzed in previous experiments (RP1–RP8, S). Immediately after transplanting, plastic conical containers were placed in a glasshouse located at the University of Tennessee (Knoxville, TN, USA; 35.56, 83.56). Peak light intensity in this glasshouse averaged 714 μmol m^−2 s^−1 with day/night temperatures averaging 27/17 °C. Irrigation was applied daily using an overhead misting system and plants were not clipped prior to initiating this study.
# Plants were allowed to acclimate to this glasshouse environment for 10 days prior to being treated with foramsulfuron (Revolver. Bayer Environmental Sciences. Research Triangle Park, NC, USA) at 29 g ha^−1, imazamox (Clearcast. BASF Corporation. Research Triangle Park, NC) at 140 g ha^−1, or simazine (Princep 4L. Syngenta Professional Products. Greensboro, NC) at 1120 g ha^−1. Per label recommendations, imazamox and simazine treatments included a non-ionic surfactant (Activator-90. Loveland Products Inc. Greeley, CO, USA) at 0.25 % v/v. All treatments were applied in an enclosed spray chamber (Generation III track sprayer. DeVries Manufacturing, Hollandale, MN, USA) using a water carrier at 215 L ha^−1 through an 8004 EVS nozzle (TeeJet, Technologies, Spraying Systems Co., Glendale Heights, IL, USA). These herbicide treatments were selected to confirm results of genetic sequencing that RP1–RP8 were resistant to sulfonylurea, imidazolinone, and photosystem II inhibiting herbicides. A non-treated control treatment was included with each resistant (RP1–RP8) and susceptible (S) plant for comparison. Herbicides were applied on 5 February 2015 when plants were at a two-to-three leaf stage, prior to annual bluegrass tiller formation.
# Annual bluegrass control was visually assessed on a 0 (i.e., no control) to 100 % (i.e., complete kill) scale relative to the non-treated 28 days after treatment. After all control data had been collected, aboveground biomass was harvested from each plastic conical container at the soil line using scissors, dried at 100 °C for 3 days, and weighed.
# Treatments were arranged as a 9 × 4 factorial with nine plant selections (i.e., RP1–RP8, S) and four herbicide treatments (i.e., foramsulfuron, imazamox, simazine, non-treated) in a completely randomized design with four replications and repeated in time and space during February 2015. Plants were the same age during both experimental runs.
# T1 sequence (P17597 86-670): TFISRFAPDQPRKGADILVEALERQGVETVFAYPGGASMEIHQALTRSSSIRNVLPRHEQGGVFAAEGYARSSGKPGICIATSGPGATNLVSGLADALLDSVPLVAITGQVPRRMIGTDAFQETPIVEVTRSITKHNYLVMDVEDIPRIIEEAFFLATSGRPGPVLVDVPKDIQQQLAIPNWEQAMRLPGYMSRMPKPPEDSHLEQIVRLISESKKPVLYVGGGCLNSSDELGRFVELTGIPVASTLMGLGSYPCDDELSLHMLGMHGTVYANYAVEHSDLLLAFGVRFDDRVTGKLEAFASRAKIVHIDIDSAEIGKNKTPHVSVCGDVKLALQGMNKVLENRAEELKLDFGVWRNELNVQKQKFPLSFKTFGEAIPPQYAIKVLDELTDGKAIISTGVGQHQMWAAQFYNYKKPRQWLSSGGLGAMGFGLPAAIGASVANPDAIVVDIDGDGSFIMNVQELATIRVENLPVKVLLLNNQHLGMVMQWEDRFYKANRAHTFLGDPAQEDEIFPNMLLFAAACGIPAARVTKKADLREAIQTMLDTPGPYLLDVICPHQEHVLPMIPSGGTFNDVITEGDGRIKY
compound,measurement,setting,value
COc1cc(OC)nc(NC(=O)NS(=O)(=O)c2ncccc2OCC(F)(F)F)n1 [Trifloxysulfuron],pIC50,[1],8.23
same,Resistance factor A205F,[2],2983
same,Resistance factor A205V,[3],9
same,Resistance factor W574L,[4],6447
same,Annual bluegrass control RP6,"[5]; RP6, herbicide alone, foramsulfuron 29, trifloxysulfuron 27.8, imazaquin 27.5, bispyribac-sodium 70 g ha^−1",38%
same,Annual bluegrass control RP6,"[5]; RP6, herbicide with PBO 2100 g ha^−1 applied 60 min prior",55%
same,Annual bluegrass control RP6,"[5]; RP6, herbicide with malathion 1000 g ha^−1 applied 60 min prior",49%
same,Annual bluegrass control RP7,"[5]; RP7, herbicide alone, foramsulfuron 29, trifloxysulfuron 27.8, imazaquin 27.5, bispyribac-sodium 70 g ha^−1",22%
same,Annual bluegrass control RP7,"[5]; RP7, herbicide with PBO 2100 g ha^−1 applied 60 min prior",17%
same,Annual bluegrass control RP7,"[5]; RP7, herbicide with malathion 1000 g ha^−1 applied 60 min prior",28%
same,Annual bluegrass control S,"[5]; herbicide alone, foramsulfuron 29, trifloxysulfuron 27.8, imazaquin 27.5, bispyribac-sodium 70 g ha^−1",94%
same,Annual bluegrass control S,[5]; herbicide with PBO 2100 g ha^−1 applied 60 min prior,94%
same,Annual bluegrass control S,[5]; herbicide with malathion 1000 g ha^−1 applied 60 min prior,92%
same,control of POAAN-R3,[6]; rates as high as 223 g ha^−1,≤ 40%
CCNc1nc(Cl)nc(NCC)n1 [Simazine],Annual bluegrass biomass RP1,"[7]; RP1, aboveground dry biomass 28 days after treatment, foramsulfuron 29, imazamox 140, simazine 1120 g ha^-1",124 % of nontreated control
same,Annual bluegrass control RP1,"[7]; RP1 plants, 28 days after treatment, 2 to 3 leaf stage, foramsulfuron 29, imazamox 140, simazine 1120 g ha^−1",0%
same,Annual bluegrass biomass RP2,"[7]; RP2, aboveground dry biomass 28 days after treatment, foramsulfuron 29, imazamox 140, simazine 1120 g ha^-1",105 % of nontreated control
same,Annual bluegrass control RP2,"[7]; RP2 plants, 28 days after treatment, 2 to 3 leaf stage, foramsulfuron 29, imazamox 140, simazine 1120 g ha^−1",0%
same,Annual bluegrass biomass RP3,"[7]; RP3, aboveground dry biomass 28 days after treatment, foramsulfuron 29, imazamox 140, simazine 1120 g ha^-1",140 % of nontreated control
same,Annual bluegrass control RP3,"[7]; RP3 plants, 28 days after treatment, 2 to 3 leaf stage, foramsulfuron 29, imazamox 140, simazine 1120 g ha^−1",0%
same,Annual bluegrass biomass RP4,"[7]; RP4, aboveground dry biomass 28 days after treatment, foramsulfuron 29, imazamox 140, simazine 1120 g ha^-1",95 % of nontreated control
same,Annual bluegrass control RP4,"[7]; RP4 plants, 28 days after treatment, 2 to 3 leaf stage, foramsulfuron 29, imazamox 140, simazine 1120 g ha^−1",0%
same,Annual bluegrass biomass RP5,"[7]; RP5, aboveground dry biomass 28 days after treatment, foramsulfuron 29, imazamox 140, simazine 1120 g ha^-1",82 % of nontreated control
same,Annual bluegrass control RP5,"[7]; RP5 plants, 28 days after treatment, 2 to 3 leaf stage, foramsulfuron 29, imazamox 140, simazine 1120 g ha^−1",0%
same,Annual bluegrass biomass RP6,"[7]; RP6, aboveground dry biomass 28 days after treatment, foramsulfuron 29, imazamox 140, simazine 1120 g ha^-1",0 % of nontreated control
same,Annual bluegrass control RP6,"[7]; RP6 plants, 28 days after treatment, 2 to 3 leaf stage, foramsulfuron 29, imazamox 140, simazine 1120 g ha^−1",100%
same,Annual bluegrass biomass RP7,"[7]; RP7, aboveground dry biomass 28 days after treatment, foramsulfuron 29, imazamox 140, simazine 1120 g ha^-1",99 % of nontreated control
same,Annual bluegrass control RP7,"[7]; RP7 plants, 28 days after treatment, 2 to 3 leaf stage, foramsulfuron 29, imazamox 140, simazine 1120 g ha^−1",0%
same,Annual bluegrass biomass RP8,"[7]; RP8, aboveground dry biomass 28 days after treatment, foramsulfuron 29, imazamox 140, simazine 1120 g ha^-1",101 % of nontreated control
same,Annual bluegrass control RP8,"[7]; RP8 plants, 28 days after treatment, 2 to 3 leaf stage, foramsulfuron 29, imazamox 140, simazine 1120 g ha^−1",0%
same,Annual bluegrass control S,"[7]; susceptible (S) plants, 28 days after treatment, 2 to 3 leaf stage, foramsulfuron 29, imazamox 140, simazine 1120 g ha^−1",98%
same,Annual bluegrass biomass S,"[7]; susceptible (S), aboveground dry biomass 28 days after treatment, foramsulfuron 29, imazamox 140, simazine 1120 g ha^-1",5 % of nontreated control
same,control of POAAN-R3,[6]; 140 to 9000 g ha^−1,≤ 20%
